Values of other authors in patent US20150216903A1, “COMPOUNDS FOR IMPROVED VIRAL TRANSDUCTION” (BLUEBIRD BIO, INC., priority 2012, published 2015).

How the values were obtained:
HIV = details: previous publications (Hayes 2002); cited from earlier work
[1] = Raz, FEBS Letters 1972; cited from earlier work

In the case of `CCCCC[C@H](O)/C=C/[C@H]1[C@H](O)CC(=O)[C@@H]1C/C=C\CCCC(=O)O` [PGE2, prostaglandin E2], the “effect on HIV replication” value (HIV) is listed as “antagonistic to HIV replication” and the “conversion upon exposure to plasma” value [1] is listed as “rapidly converts to prostaglandin A2 (PGA2)”.
For `CCCCC[C@H](O)/C=C/[C@H]1C=CC(=O)[C@@H]1C/C=C\CCCC(=O)O` [PGA2, prostaglandin A2], the “effect on HIV replication” value (HIV) is listed as “inhibits HIV replication”.
